Source: patent publication US20150141381A1, “TETRACYCLINE COMPOUNDS HAVING TARGET THERAPEUTIC ACTIVITIES” (Paratek Pharmaceuticals, Inc., priority 2001, published 2015)
Read-outs that look alike come from different tables or passages of the source.

Key:
[1] = system: S. aureus RN450; experiment: In Vitro Anti-Bacterial Activity Assay (MIC), gram positive; type: cell-based; conditions: Staphylococcus aureus, RN450, 18 h
[2] = system: E. coli mL308 225; experiment: In Vitro Anti-Bacterial Activity Assay (MIC), gram negative; type: cell-based; conditions: Escherichia coli, ML308225, 18 h
[3] = MIC class, Table 3 (Continued), read-out: Gram+ activity
[4] = MIC class, Table 3 (Continued), read-out: Gram− activity
[5] = gram positive bacteria, read-out: Antibiotic Activity Gram + (MIC)
[6] = gram negative bacteria, read-out: Antibiotic Activity Gram − (MIC)
[7] = MIC class, Table 3, read-out: Antibiotic Activity Gram +
[8] = MIC class, Table 3, read-out: Antibiotic Activity Gram −

| SMILES | MIC [1, 5] [µg/mL] | MIC [2, 6] [µg/mL] | MIC [1, 7] [µg/mL] | MIC [2, 8] [µg/mL] | also measured |
| --- | --- | --- | --- | --- | --- |
| CC1c2cccc(O)c2C(=O)C2=C(O)[C@]3(O)C(=O)C(C(N)=O)=C(O)[C@@H](N(C)C)[C@@H]3[C@@H](O)[C@@H]21 (some centres unmarked) |  |  |  |  | MIC [1, 3]: < 4 µg/mL; MIC [2, 4]: > 4 µg/mL |
| CCOP(=O)(OCC)C(Nc1ccc2c(c1O)C(=O)C1=C(O)[C@]3(O)C(=O)C(C(N)=O)=C(O)[C@@H](N(C)C)[C@@H]3[C@@H](O)[C@@H]1[C@H]2C)c1ccc(OC)cc1 (some centres unmarked) |  |  |  |  | MIC ([1]; read-out: Gram+ activity): < 4 µg/mL; MIC ([2]; read-out: Gram− activity): > 4 µg/mL |
| CN(C)c1cc(CN(Cc2ccccc2)CC(F)(F)F)c(O)c2c1C[C@H]1C[C@H]3[C@H](N(C)C)C(O)=C(C(N)=O)C(=O)[C@@]3(O)C(O)=C1C2=O | < 4 | > 4 |  |  |  |
| Cc1cc(C)cc(/C=C2\c3cccc(O)c3C(=O)C3=C(O)[C@]4(O)C(=O)C(C(N)=O)=C(O)[C@@H](N(C)C)[C@@H]4[C@@H](O)[C@@H]32)c1 |  |  |  |  | MIC [1, 3]: < 4 µg/mL; MIC [2, 4]: < 4 µg/mL |
| CO/N=C(/C)c1ccc(O)c2c1C[C@H]1C[C@H]3C(N(C)C)C(O)=C(C(N)=O)C(=O)[C@@]3(O)C(O)=C1C2=O (some centres unmarked) [ET] |  |  | < 4 | < 4 |  |
| CN(C)c1cc(Cn2ccc(C=O)c2)c(O)c2c1C[C@H]1C[C@H]3[C@H](N(C)C)C(O)=C(C(N)=O)C(=O)[C@@]3(O)C(O)=C1C2=O | < 4 | > 4 |  |  |  |
| COc1ccc(C#Cc2ccc(O)c3c2C[C@H]2C[C@H]4[C@H](N(C)C)C(O)=C(C(N)=O)C(=O)[C@@]4(O)C(O)=C2C3=O)cc1 |  |  |  |  | MIC [1, 3]: < 4 µg/mL; MIC [2, 4]: < 4 µg/mL |
| NC(=O)C1=C(O)C[C@@H]2C[C@@H]3Cc4cccc(O)c4C(=O)C3=C(O)[C@]2(O)C1=O | < 4 | < 4 |  |  |  |
| CN(C)c1cc(C#CCc2ccccc2)c(O)c2c1C[C@H]1C[C@H]3[C@H](N(C)C)C(O)=C(C(N)=O)C(=O)[C@@]3(O)C(O)=C1C2=O [DQ] |  |  | < 4 | > 4 |  |
| CN(C)c1cc(CCC(=O)NC(C)(C)C)c(O)c2c1C[C@H]1C[C@H]3[C@H](N(C)C)C(O)=C(C(N)=O)C(=O)[C@@]3(O)C(O)=C1C2=O | > 4 | > 4 |  |  |  |
| CC(=O)c1cc(CNCC(C)(C)C)c(O)c2c1C[C@H]1C[C@H]3[C@H](N(C)C)C(O)=C(C(N)=O)C(=O)[C@@]3(O)C(O)=C1C2=O | < 4 | > 4 |  |  |  |
| CN(C)c1cc(-c2ccc(Cl)c(Cl)c2)c(O)c2c1C[C@H]1C[C@H]3[C@H](N(C)C)C(O)=C(C(N)=O)C(=O)[C@@]3(O)C(O)=C1C2=O [AI] |  |  | < 4 | > 4 |  |
| COc1ccc(CNCC(C)C)cc1-c1ccc(O)c2c1C[C@H]1C[C@H]3[C@H](N(C)C)C(O)=C(C(N)=O)C(=O)[C@@]3(O)C(O)=C1C2=O [EG] |  |  | < 4 | < 4 |  |
| CN(C)[C@@H]1C(O)=C(C(N)=O)C(=O)[C@@]2(O)C(O)=C3C(=O)c4c(O)ccc(C(=O)O)c4C[C@H]3C[C@@H]12 | > 4 | > 4 |  |  |  |
| CCc1cc(CNC(=O)c2cccnc2)c(O)c2c1C[C@H]1C[C@H]3[C@H](N(C)C)C(O)=C(C(N)=O)C(=O)[C@@]3(O)C(O)=C1C2=O [CS] |  |  | > 4 | > 4 |  |
| CN(C)[C@@H]1C(O)=C(C(N)=O)C(=O)[C@@]2(O)C(O)=C3C(=O)c4c(O)c(CN)cc(-c5cccc([N+](=O)O)c5)c4C[C@H]3C[C@@H]12 [DE] |  |  | < 4 | > 4 |  |
| CC(CF)NCc1cc(N(C)C)c2c(c1O)C(=O)C1=C(O)[C@]3(O)C(=O)C(C(N)=O)=C(O)[C@@H](N(C)C)[C@@H]3C[C@@H]1C2 (some centres unmarked) | < 4 |  |  |  | MIC ([2]; read-out: Antibiotic Activity Gram − (MIC)): > 4 µg/mL |
| CC(C)COC(=O)NCc1ccc(O)c2c1C[C@H]1C[C@H]3[C@H](N(C)C)C(O)=C(C(N)=O)C(=O)[C@@]3(O)C(O)=C1C2=O [FT] |  |  | < 4 | > 4 |  |
| CO/N=C(/C)c1cc(C(C)(C)C)c(O)c2c1C[C@H]1C[C@H]3[C@H](N(C)C)C(O)=C(C(N)=O)C(=O)[C@@]3(O)C(O)=C1C2=O [IC] |  |  | < 4 | > 4 |  |
| COc1ccc(-c2ccc(O)c3c2C[C@H]2C[C@H]4[C@H](N(C)C)C(O)=C(C(N)=O)C(=O)[C@@]4(O)C(O)=C2C3=O)cc1CN1CCN(CCO)CC1 [KA] |  |  | < 4 | > 4 |  |

| SMILES | MIC [1, 5] [µg/mL] | MIC [2, 6] [µg/mL] | MIC [1, 7] [µg/mL] | MIC [2, 8] [µg/mL] | also measured |
| --- | --- | --- | --- | --- | --- |
| CN(C)[C@@H]1C(O)=C(C(N)=O)C(=O)[C@@]2(O)C(O)=C3C(=O)c4c(O)c(CN5CCCCC5)cc(-c5ccoc5)c4C[C@H]3C[C@@H]12 [PQ] |  |  | < 4 | < 4 |  |
| CN(C)c1cc(NC(=O)Nc2ccccc2)c(O)c2c1C[C@H]1C[C@H]3[C@H](N(C)C)C(O)=C(C(N)=O)C(=O)[C@@]3(O)C(O)=C1C2=O [CB] |  |  | < 4 | > 4 |  |
| CN(C)Cc1ccc(-c2ccc(O)c3c2C[C@H]2C[C@H]4[C@@H](N(C)C)C(O)=C(C(N)=O)C(=O)[C@@]4(O)C(O)=C2C3=O)c2ccccc12 [K] |  |  | < 4 | < 4 |  |
| C[C@H]1c2ccc(N3CCCCC3)c(O)c2C(=O)C2=C(O)[C@]3(O)C(=O)C(C(N)=O)=C(O)[C@@H](N(C)C)[C@@H]3[C@@H](O)[C@@H]21 [JV] |  |  | < 4 | > 4 |  |
| CN(C)c1cc(CNCc2cccn2C)c(O)c2c1C[C@H]1C[C@H]3[C@H](N(C)C)C(O)=C(C(N)=O)C(=O)[C@@]3(O)C(O)=C1C2=O | < 4 | > 4 |  |  |  |
| CN(C)c1cc(C#CC2(O)CCCCC2)c(O)c2c1C[C@H]1C[C@H]3[C@H](N(C)C)C(O)=C(C(N)=O)C(=O)[C@@]3(O)C(O)=C1C2=O [AN] |  |  | > 4 | > 4 |  |
| CCCCOC1C(C(N)=O)=C(O)[C@@H](N(C)C)[C@@H]2[C@@H](O)[C@H]3C(=C(O)[C@]12O)C(=O)c1c(O)cccc1[C@@H]3C (some centres unmarked) | > 4 | > 4 |  |  |  |
| CN(C)c1cc(CNC(=O)Nc2ccc(OC(F)(F)F)cc2)c(O)c2c1C[C@H]1C[C@H]3[C@H](N(C)C)C(O)=C(C(N)=O)C(=O)[C@@]3(O)C(O)=C1C2=O [FO] |  |  | < 4 | > 4 |  |
| CC(C)CNCc1cc(N(C)C)c2c(c1O)C(=O)C1=C(O)[C@]3(O)C(=O)C(C(N)=O)=C(O)[C@@H](N(C)C)[C@@H]3C[C@@H]1C2 [drawing 3469] | < 4 | < 4 |  |  |  |
| COc1ccc(C=O)cc1-c1ccc(O)c2c1C[C@H]1C[C@H]3[C@@H](N(C)C)C(O)=C(C(N)=O)C(=O)[C@@]3(O)C(O)=C1C2=O [GO] |  |  | < 4 | > 4 |  |
| Cc1ccc(-c2ccc(O)c3c2C[C@H]2C[C@H]4[C@H](N(C)C)C(O)=C(C(N)=O)C(=O)[C@@]4(O)C(O)=C2C3=O)cc1 |  |  |  |  | MIC [1, 3]: < 4 µg/mL; MIC [2, 4]: < 4 µg/mL |
| CN(C)c1cc(CN2C3CCC2CC3)c(O)c2c1C[C@H]1C[C@H]3[C@H](N(C)C)C(O)=C(C(N)=O)C(=O)[C@@]3(O)C(O)=C1C2=O | < 4 | > 4 |  |  |  |
| CC1c2ccc(-c3ccc4c(c3)OCO4)c(O)c2C(=O)C2=C(O)[C@]3(O)C(=O)C(C(N)=O)=C(O)[C@@H](N(C)C)[C@@H]3[C@@H](O)[C@@H]21 (some centres unmarked) |  |  |  |  | MIC [1, 3]: < 4 µg/mL; MIC [2, 4]: < 4 µg/mL |
| CN(C)c1cc(CNc2ccccc2)c(O)c2c1C[C@H]1C[C@H]3[C@H](N(C)C)C(O)=C(C(N)=O)C(=O)[C@@]3(O)C(O)=C1C2=O | < 4 | > 4 |  |  |  |
| CCCCCc1ccc(O)c2c1C[C@H]1C[C@H]3[C@H](N(C)C)C(O)=C(C(N)=O)C(=O)[C@@]3(O)C(O)=C1C2=O [DG] |  |  | < 4 | > 4 |  |
| CN(C)c1cc(CNc2ccccn2)c(O)c2c1C[C@H]1C[C@H]3[C@H](N(C)C)C(O)=C(C(N)=O)C(=O)[C@@]3(O)C(O)=C1C2=O | < 4 | > 4 |  |  |  |
| CC(=O)Nc1ccc(-c2ccc(O)c3c2C[C@H]2C[C@H]4[C@H](N(C)C)C(O)=C(C(N)=O)C(=O)[C@@]4(O)C(O)=C2C3=O)cc1 | < 4 | > 4 |  |  |  |
| CN(C)[C@@H]1C(O)=C(C(N)=O)C(=O)[C@@]2(O)C(O)=C3C(=O)c4c(O)cccc4C(CSCc4ccccc4)[C@H]3[C@H](O)[C@@H]12 (some centres unmarked) |  |  |  |  | MIC [1, 3]: < 4 µg/mL; MIC [2, 4]: < 4 µg/mL |
| Cc1csc(-c2ccc(O)c3c2C[C@H]2C[C@H]4[C@H](N(C)C)C(O)=C(C(N)=O)C(=O)[C@@]4(O)C(O)=C2C3=O)c1 |  |  |  |  | MIC [1, 3]: < 4 µg/mL; MIC [2, 4]: < 4 µg/mL |
| CCC(NCc1cc(N(C)C)c2c(c1O)C(=O)C1=C(O)[C@]3(O)C(=O)C(C(N)=O)=C(O)C(N(C)C)[C@@H]3C[C@@H]1C2)C(F)(F)F (some centres unmarked) [NT] |  |  | < 4 | > 4 |  |
